Source: patent publication US11229618B2 (Amarin Pharmaceuticals Ireland Limited, priority 2012, dated 2022)

System: subjects with Age-Associated Memory Impairment
Experiment: AAMI 6-week study: CDR computerized cognitive test battery
Assay type: in vivo, human
Conditions: for Quality of Episodic Secondary Memory, LS mean difference versus placebo: overall; for Self-Rated Contentment, treatment effects: p<0.001
Description: A single-center, 6-week, double-blind, randomizes, parallel-group, placebo-controlled, dose-ranging pilot study was performed to evaluate the efficacy, tolerability, and safety of >96% ethyl-EPA in subjects with subjective and objective memory impairment according to generally accepted criteria for Age-Associated Memory Impairment (“AAMI”). The primary objective of the study was to determine the effect of >96% ethyl-EPA 1 g, 2 g, and 4 g daily, compared to placebo, on cognitive performance in subjects with AAMI.
Ninety-four subjects were randomized into one of six groups: 1 g E-EPA daily (n=23), 2 g E-EPA daily (n=24), 4 g E-EPA daily (n=24), 1 g placebo daily (n=7), 2 g placebo daily (n=8), and 4 g placebo daily (n=8). E-EPA was provided as 500 mg soft gel capsules containing>96% E-EPA and 0.2% dl-α-tocopherol as an antioxidant. Placebo capsules contained 467 mg of liquid paraffin and 0.2% dl-α-tocopherol. Ninety-one subjects completed the study. Two subjects in the 2 g E-EPA group and one subject in the 2 g placebo group discontinued the study.
The study consisted of a screening visit, a training visit, and four study visits. At the screening visit, subjects' eligibility was determined through cognitive tests (verbal paired associated learning [PAL] subscale, vocabulary subtest, Memory Assessment Clinics Questionnaire [MAC-Q], mini mental state evaluation [MMSE] and MINI [mini international neuropsychiatric interview; sections 1 and 2 of Diagnostic and Statistical Manual of Mental Disorders, 4th Edition (DSM-IV) plus dysthymia]), haematology, clinical chemistry and 12-lead electrocardiogram (ECG). At the training visit, subjects were shown how to use the CDR computerized system. Subjects took study drug for 6 weeks and on Days 0, 14, 28 and 42, subjects underwent the CDR cognitive test battery.
A selection of tasks from the CDR computerized cognitive assessment system were administered at Visit 2 (training visit), Visit 3 (baseline), Visit 4 (Day 14), Visit 5 (Day 28) and Visit 6 (Day 42). Parallel forms of the tests were presented at each testing session. All tasks were computer-controlled, the information presented on high resolution monitors, and the responses recorded via a response model containing two buttons: one marked ‘no’ and the other ‘yes’. Five CDR composite scores were used as the primary/secondary outcome variables. The task titles were: • Word Presentation • Immediate Word Recall • Picture Presentation • Simple Reaction Time • Digit Vigilance • Choice Reaction Time • Spatial Working Memory • Numeric Working Memory • Delayed Word Recall • Word Recognition • Picture Recognition • Bond-Lader Visual Analogue Scales of Mood and Alertness • Screen, Using the Computer Mouse
Difference from baseline data for each major variable was evaluated by an Analysis of Covariance (“ANCOVA”) using SAS® PROC MIXED Version 8.2. Fixed effects for treatment, day, time point, treatment by day, treatment by time point, treatment by day by time-point were fitted. Subject within treatment was fitted as a repeated effect using the repeated statement. The compound symmetry covariance structure was used. Subjects' time-matched predose assessments on Day 0 were used as a covariate in the analysis.
Least squares means (LS means) were calculated for treatment by day, treatment by time-point and treatment by day by time-point interaction. This formal analysis was conducted for the ITT and Study PP Populations separately.
A post-hoc analysis compared the individual placebo groups (1 g, 2 g and 4 g paraffin oil) with the corresponding ethyl-EPA doses.

[1] = post-hoc analysis, 1 g, Days 14 and 28

For `CC/C=C\C/C=C\C/C=C\C/C=C\C/C=C\CCCC(=O)OCC` [IPE, all-cis eicosa-5,8,11,14,17-pentaenoic acid ethyl ester], the “Continuity of Attention, effect of treatment” value (ITT) was “no statistically significant effect of treatment”, the “Quality of Episodic Secondary Memory, effect of treatment” value (ITT) was “no statistically significant effect of treatment” and the “Self-Rated Alertness, effect of treatment” value (ITT) was “no statistically significant effect of treatment”. For the same compound, the “Self-Rated Calmness, effect of treatment” value (ITT) was “no statistically significant effect of treatment”, the “Self-Rated Contentment, LS mean difference to placebo” value (ITT) was “no statistically significant effects” and the “Speed of Memory and contributing subtasks, effect of treatment” value (ITT) was “no statistically significant effects of treatment”. For the same compound, the “Power of Attention, effect of treatment” value (ITT, 1, 2, 4 g daily vs placebo) was “no statistically significant effect of treatment”, the “Immediate Word Recall Accuracy, LS mean difference versus placebo” value (ITT, 1 g, AM 1, p=0.040) was “statistically significant decreases” and the “Immediate Word Recall Accuracy, LS mean difference versus placebo” value (ITT, 1 g, Day 14, p=0.028) was “statistically significant decreases”. The “Picture Recognition Speed versus placebo” value (ITT, 1 g, Day 14 at AM 2, p=0.084) was “trends for benefits”, the “Immediate Word Recall Accuracy, LS mean difference versus placebo” value (ITT, 1 g, Day 14 at PM 2, p=0.020) was “statistically significant decreases” and the “Word Recognition Sensitivity Index, LS mean difference versus placebo” value (ITT, 1 g, Day 28, p=0.024) was “statistically significant decreases”. The “Picture Recognition Speed versus placebo” value (ITT, 1 g, Day 28 at AM 1, p=0.085) was “trends for benefits”, the “Picture Recognition Sensitivity Index, LS mean difference versus placebo” value (ITT, 1 g, Day 28 at AM 2, p=0.017) was “statistically significant decrease” and the “Picture Recognition Sensitivity Index, LS mean difference versus placebo” value (ITT, 1 g, Day 28 at PM 2, p=0.040) was “statistically significant decrease”. The “Quality of Episodic Secondary Memory, LS mean difference versus placebo” value (“Quality … LS mean difference versus placebo” for short) (ITT, 1 g, p=0.040) was “statistically significant decreases”, the “Immediate Word Recall Accuracy, LS mean difference versus placebo” value (ITT, 2 g, AM 1, p=0.028) was “statistically significant decreases” and the “Immediate Word Recall Accuracy, LS mean difference versus placebo” value (ITT, 2 g, Day 28, p=0.017) was “statistically significant decreases”. The “Self-Rated Alertness, LS mean difference versus placebo” value (ITT, 2 g, Day 28, p=0.047) was “statistically significant decrease in ratings”, the “Immediate Word Recall Accuracy, LS mean difference versus placebo” value (ITT, 2 g, Day 28 at AM 1, p=0.006) was “statistically significant decreases” and the “Self-Rated Alertness, LS mean difference versus placebo” value (ITT, 2 g, Day 28 at AM 2, p=0.041) was “statistically significant decrease in ratings”. For the same compound, the “Quality … LS mean difference versus placebo” value (ITT, 2 g, p=0.035) was “statistically significant decreases”, the “Spatial Working Memory Speed, LS mean difference versus placebo” value (ITT, 4 g, Day 14 at PM 1, p=0.048) was “statistically significant benefit” and the “Word Recognition Sensitivity Index, LS mean difference versus placebo” value (ITT, 4 g, Day 28 at PM 2, p=0.030) was “statistically significant decrease”. For the same compound, the “Word Recognition Sensitivity Index, LS mean difference versus placebo” value (ITT, 4 g, Day 42, p=0.038) was “statistically significant decreases”, the “Spatial Working Memory Speed, LS mean difference versus placebo” value (ITT, 4 g, Day 42 at AM 1, p=0.061) was “trend for a benefit” and the “Word Recognition Sensitivity Index, LS mean difference versus placebo” value (ITT, 4 g, PM 2, p=0.045) was “statistically significant decrease”. The “Self-Rated Contentment, treatment effects” value (ITT) was “statistically significant treatment by day interaction”, the “Choice Reaction Time, treatment effects” value (ITT, p=0.011) was “statistically significant treatment by day interaction” and the “Spatial Working Memory Sensitivity Index, treatment effects” value (ITT, p=0.015) was “statistically significant treatment by day interaction”. For the same compound, the “Quality of Working Memory, treatment effects” value (ITT, p=0.019) was “statistically significant treatment by day interaction”, the “Numeric Working Memory Sensitivity Index, treatment effects” value (ITT, p=0.089) was “statistical trend for a treatment by day interaction” and the “Continuity of Attention, effect of treatment” value (Study Per Protocol) was “no statistically significant effect of treatment”. The “Digit Vigilance Targets Detected, treatment effects” value (Study Per Protocol, p=0.040) was “statistically significant treatment by time-point interaction”, the “Power of Attention, effect of treatment” value (Study Per-Protocol) was “no statistically significant effect of treatment” and the “Quality of Episodic Secondary Memory, effect of treatment” value (Study Per-Protocol) was “no statistically significant effects of treatment”. The “Self-Rated Alertness, effect of treatment” value (Study Per-Protocol) was “no statistically significant effect of treatment”, the “Self-Rated Calmness, effect of treatment” value (Study Per-Protocol) was “no statistically significant effect of treatment” and the “Self-Rated Contentment, LS mean difference to placebo” value (Study Per-Protocol) was “no statistically significant effects”. For the same compound, the “Speed of Memory and contributing subtasks, effect of treatment” value (Study Per-Protocol) was “no statistical significant effects of treatment”, the “Immediate Word Recall Accuracy, LS mean difference to placebo” value (Study Per-Protocol, 1 g, AM 1, p=0.038) was “statistically significant decreases” and the “Immediate Word Recall Accuracy, LS mean difference to placebo” value (Study Per-Protocol, 1 g, AM 2, p=0.048) was “statistically significant decreases”. The “Immediate Word Recall Accuracy, LS mean difference to placebo” value (Study Per-Protocol, 1 g, Day 14, p=0.024) was “statistically significant decreases”, the “Immediate Word Recall Accuracy, LS mean difference to placebo” value (Study Per-Protocol, 1 g, Day 14 at PM 2, p=0.019) was “statistically significant decreases” and the “Word Recognition Sensitivity Index, LS mean difference to placebo” value (Study Per-Protocol, 1 g, Day 28, p=0.027) was “statistically significant decreases”. The “Picture Recognition Sensitivity Index, LS mean difference versus placebo” value (Study Per-Protocol, 1 g, Day 28 at AM 2, p=0.020) was “statistically significant decreases”, the “Picture Recognition Sensitivity Index, LS mean difference versus placebo” value (Study Per-Protocol, 1 g, Day 28 at PM 2, p=0.026) was “statistically significant decreases” and the “Quality … LS mean difference versus placebo” value (Study Per-Protocol, 1 g, p=0.043) was “statistically significant decreases”. For the same compound, the “Immediate Word Recall Accuracy, LS mean difference to placebo” value (Study Per-Protocol, 2 g, AM 1, p=0.029) was “statistically significant decreases”, the “Immediate Word Recall Accuracy, LS mean difference to placebo” value (Study Per-Protocol, 2 g, Day 28, p=0.017) was “statistically significant decreases” and the “Self-Rated Alertness, LS mean difference versus placebo” value (Study Per-Protocol, 2 g, Day 28, p=0.035) was “statistically significant decrease in ratings”. The “Immediate Word Recall Accuracy, LS mean difference to placebo” value (Study Per-Protocol, 2 g, Day 28 at AM 1, p=0.006) was “statistically significant decreases”, the “Self-Rated Alertness, LS mean difference versus placebo” value (Study Per-Protocol, 2 g, Day 28 at AM 2, p=0.033) was “statistically significant decrease in ratings” and the “Quality … LS mean difference versus placebo” value (Study Per-Protocol, 2 g, p=0.036) was “statistically significant decreases”. The “Word Recognition Sensitivity Index, LS mean difference to placebo” value (Study Per-Protocol, 4 g, Day 42, p=0.038) was “statistically significant decreases”, the “Self-Rated Calmness, LS mean difference versus placebo” value (Study Per-Protocol, 4 g, Day 42 at PM 1, p=0.071) was “statistical trend for an increase in ratings” and the “Self-Rated Contentment, treatment effects” value (Study Per-Protocol) was “statistically significant treatment by day interaction”. The “Choice Reaction Time, treatment effects” value (Study Per-Protocol, p=0.013) was “statistically significant treatment by day interaction”, the “Spatial Working Memory Sensitivity Index, treatment effects” value (Study Per-Protocol, p=0.014) was “statistically significant treatment by day interaction” and the “Quality of Working Memory, treatment effects” value (Study Per-Protocol, p=0.021) was “statistically significant treatment by day interaction”. For the same compound, the “Self-Rated Calmness versus corresponding placebo” value (post-hoc analysis) was “no differences between active treatment and placebo”, the “Self-rated Alertness versus corresponding placebo” value [1] was “decreases in ratings” and the “Self-rated Contentment versus corresponding placebo” value [1] was “decreases in ratings”. The “Power of Attention versus corresponding placebo” value (post-hoc analysis, 4 g, Day 42) was “overall benefit versus the corresponding placebo”, the “Spatial Working Memory Sensitivity Index versus corresponding placebo” value (post-hoc analysis, 4 g, Day 42, Study PP Population) was “overall benefit” and the “Simple Reaction Time versus corresponding placebo” value (post-hoc analysis, 4 g, PM 2 collapsed across days and several time-points on Days 14 and 42) was “improvements in performance”. For the same compound, the “Choice Reaction Time versus corresponding placebo” value (post-hoc analysis, 4 g, all study days) was “overall benefit versus corresponding placebo” and the “subtask measures of Speed of Memory versus corresponding placebo” value (post-hoc analysis, mostly for 1 g) was “some signs of improvement in performance”.
